Laboratory results: publication PMC9863764, “Roles of Human Liver Cytochrome P450 Enzymes in Tenatoprazole Metabolism” (Pharmaceutics, 2022)
Where “and” joins values, the source holds several entries; their conditions need not be identical. Equal entries are not always repeated.

Key:
Format in all cases: in vitro ADME
human CYP2C19 = target: T1, human CYP2C19 (Homo sapiens, UniProt P33261); assay: Steady-state kinetics of tenatoprazole oxidation by recombinant CYP2C19
T1 construct: made in house; host or cells: Escherichia coli (membrane fractions)
T1 sequence (P33261 whole entry): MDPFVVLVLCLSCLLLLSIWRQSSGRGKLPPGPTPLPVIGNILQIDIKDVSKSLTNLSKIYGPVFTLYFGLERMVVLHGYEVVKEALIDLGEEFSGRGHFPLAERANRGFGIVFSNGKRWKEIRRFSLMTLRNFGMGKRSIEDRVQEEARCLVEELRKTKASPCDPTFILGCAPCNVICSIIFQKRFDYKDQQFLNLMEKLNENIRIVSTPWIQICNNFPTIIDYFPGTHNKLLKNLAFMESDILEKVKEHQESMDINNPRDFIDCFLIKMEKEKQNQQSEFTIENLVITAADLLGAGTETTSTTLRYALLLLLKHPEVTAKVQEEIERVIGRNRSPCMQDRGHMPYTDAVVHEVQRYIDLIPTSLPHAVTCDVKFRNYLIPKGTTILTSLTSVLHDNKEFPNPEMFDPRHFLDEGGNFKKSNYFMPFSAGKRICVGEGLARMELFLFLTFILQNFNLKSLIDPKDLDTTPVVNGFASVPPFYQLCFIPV
Description: Pooled liver microsomes from human samples were obtained from ThermoFisher Scientific (Waltham, MA, USA). […] Membrane fractions expressing both P450 and CPR of E. coli were prepared as described previously and were used for the catalytic activity assays. […] The reaction was started by adding NGS and the incubation was continued for the indicated time at 37 °C. Incubation was then stopped by adding ice-chilled ethyl acetate (0.50 mL) and omeprazole (IS) was added to a final concentration of 20 μM. […] Phenomenex, Torrance, CA, USA). The products formed were analyzed by HPLC at […]. […] The kinetic parameters (kcat and Km) were determined by using a Michaelis-Menten nonlinear regression analysis with GraphPad Prism (GraphPad Software, San Diego, CA, USA).

CYP1A2 = target: T2, CYP1A2 (Homo sapiens, UniProt P05177); assay: Tenatoprazole oxidation by recombinant CYP1A2; details: substrate tenatoprazole 0.10 mM, 0.20 μM CYP1A2; no apparent formation
T2 construct: made in house; host or cells: Escherichia coli (membrane fractions)
T2 sequence (P05177 1-516): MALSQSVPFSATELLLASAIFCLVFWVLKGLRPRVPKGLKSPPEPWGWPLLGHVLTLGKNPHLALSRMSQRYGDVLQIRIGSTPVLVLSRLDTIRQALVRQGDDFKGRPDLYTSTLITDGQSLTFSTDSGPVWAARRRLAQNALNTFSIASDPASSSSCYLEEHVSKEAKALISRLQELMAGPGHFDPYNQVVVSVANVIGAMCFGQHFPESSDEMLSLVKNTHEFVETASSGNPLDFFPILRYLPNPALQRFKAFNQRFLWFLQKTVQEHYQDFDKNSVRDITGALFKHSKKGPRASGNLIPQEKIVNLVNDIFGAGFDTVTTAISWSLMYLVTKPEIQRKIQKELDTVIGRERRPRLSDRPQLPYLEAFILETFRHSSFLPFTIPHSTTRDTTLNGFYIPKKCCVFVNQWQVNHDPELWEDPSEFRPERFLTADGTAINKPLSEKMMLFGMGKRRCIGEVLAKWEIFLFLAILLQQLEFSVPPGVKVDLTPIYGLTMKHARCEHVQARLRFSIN
Description: (§1) Pooled liver microsomes from human samples were obtained from ThermoFisher Scientific (Waltham, MA, USA). Recombinant human P450s were heterologously expressed in Escherichia coli with a pCW vector containing human P450 cDNA (CYP 3A4, 2C9, 2C19, 1A2, 1B1, 2E1, 2D6, and 2A6) and rat NADPH-P450 reductase (CPR). Membrane fractions expressing both P450 and CPR of E. coli were prepared as described previously and were used for the catalytic activity assays.
(§2) The reaction mixture included 0.20 μM P450, 0.40 μM CPR, and tenatoprazole (0.10 mM) in 0.25 mL of 0.10 M potassium phosphate buffer (pH 7.4). The reaction was started by adding NGS and the incubation was continued for the indicated time at 37 °C. Incubation was then stopped by adding ice-chilled ethyl acetate (0.50 mL) and omeprazole (IS) was added to a final concentration of 20 μM. The mixtures were vortexed for 2 min, centrifuged at 1000× g for 20 min, and then the organic layer was taken for drying under nitrogen gas stream. The residues were dissolved in 180 μL of HPLC mobile phase and 30 μL was injected onto a Gemini C18 column (4.6 × 150 mm, 5 μm; Phenomenex, Torrance, CA, USA). The products formed were analyzed by HPLC at A302. The HPLC profile of the authentic chemicals (i.e., tenatoprazole, tenatoprazole sulfide, and their metabolites) were used to identify the major metabolites of tenatoprazole and tenatoprazole sulfide produced by the recombinant P450s.
(§3) Figure S6. HPLC analyses of the products derived from the oxidation of tenatoprazole catalyzed by recombinant human P450s. The reaction mixture included 0.20 μM P450, 0.40 μM CPR, and 0.10 mM tenatoprazole in 0.25 mL of potassium phosphate buffer (0.10 M, pH 7.4). The reaction was started by adding an NGS at 37 °C for 60 min. (A) CYP1A2; (B) CYP1B1; (C) CYP2A6; (D) CYP2C9; (E) CYP2D6; (F) CYP2E1. The arrows with solid and broken lines indicate the retention times of 5’-OH tenatoprazole (6.6 min) and 5’-OH tenatoprazole sulfide (8.4 min), respectively.
(§4) (1 picture or pasted object on this page, not shown here)

CYP1B1 = target: T3, CYP1B1 (Homo sapiens, UniProt Q16678); assay: Tenatoprazole oxidation by recombinant CYP1B1; details: substrate tenatoprazole 0.10 mM, 0.20 μM CYP1B1; no apparent formation
T3 construct: made in house; host or cells: Escherichia coli (membrane fractions)
T3 sequence (Q16678 1-543): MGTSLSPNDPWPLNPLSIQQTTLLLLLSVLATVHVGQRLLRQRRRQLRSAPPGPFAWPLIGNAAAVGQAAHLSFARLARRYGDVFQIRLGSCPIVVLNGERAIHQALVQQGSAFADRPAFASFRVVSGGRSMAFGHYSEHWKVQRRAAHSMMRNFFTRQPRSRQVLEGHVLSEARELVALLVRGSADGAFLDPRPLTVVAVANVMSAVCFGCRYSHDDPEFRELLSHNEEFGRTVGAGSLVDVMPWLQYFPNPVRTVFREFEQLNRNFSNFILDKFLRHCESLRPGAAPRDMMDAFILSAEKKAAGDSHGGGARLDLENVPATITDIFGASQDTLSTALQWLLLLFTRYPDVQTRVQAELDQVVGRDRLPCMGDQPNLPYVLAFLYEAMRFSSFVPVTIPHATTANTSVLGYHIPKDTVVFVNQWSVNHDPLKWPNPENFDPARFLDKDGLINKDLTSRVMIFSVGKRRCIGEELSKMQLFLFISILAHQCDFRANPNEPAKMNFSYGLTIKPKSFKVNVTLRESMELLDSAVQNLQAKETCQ
Description: as §1, §2, §3, §4

CYP2C9 = target: T4, CYP2C9 (Homo sapiens, UniProt P11712); assay: Tenatoprazole oxidation by recombinant CYP2C9; details: substrate tenatoprazole 0.10 mM, 0.20 μM CYP2C9
T4 construct: made in house; host or cells: Escherichia coli (membrane fractions)
T4 sequence (P11712 whole entry): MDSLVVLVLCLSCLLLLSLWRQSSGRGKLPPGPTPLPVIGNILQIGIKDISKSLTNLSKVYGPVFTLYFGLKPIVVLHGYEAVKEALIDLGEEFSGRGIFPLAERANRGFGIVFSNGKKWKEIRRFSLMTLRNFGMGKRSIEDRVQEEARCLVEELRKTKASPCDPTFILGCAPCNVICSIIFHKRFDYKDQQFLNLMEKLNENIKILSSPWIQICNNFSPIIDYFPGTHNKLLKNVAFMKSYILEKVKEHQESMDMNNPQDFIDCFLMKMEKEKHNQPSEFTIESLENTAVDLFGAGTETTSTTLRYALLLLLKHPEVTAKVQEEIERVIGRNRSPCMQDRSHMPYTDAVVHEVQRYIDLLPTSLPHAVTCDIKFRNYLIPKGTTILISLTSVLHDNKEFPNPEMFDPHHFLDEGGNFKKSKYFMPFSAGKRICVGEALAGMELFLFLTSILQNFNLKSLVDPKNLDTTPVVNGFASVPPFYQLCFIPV
Description: as §1
as §2, with “The HPLC profile of the authentic chemicals (i.e., tenatoprazole, tenatoprazole sulfide, and their metabolites) were used to identify the major metabolites of tenatoprazole and tenatoprazole sulfide produced by the recombinant P450s.” left out

CYP2D6 = target: T5, CYP2D6 (Homo sapiens, UniProt P10635); assay: Tenatoprazole oxidation by recombinant CYP2D6; details: substrate tenatoprazole 0.10 mM, 0.20 μM CYP2D6
T5 construct: made in house; host or cells: Escherichia coli (membrane fractions)
T5 sequence (P10635 whole entry): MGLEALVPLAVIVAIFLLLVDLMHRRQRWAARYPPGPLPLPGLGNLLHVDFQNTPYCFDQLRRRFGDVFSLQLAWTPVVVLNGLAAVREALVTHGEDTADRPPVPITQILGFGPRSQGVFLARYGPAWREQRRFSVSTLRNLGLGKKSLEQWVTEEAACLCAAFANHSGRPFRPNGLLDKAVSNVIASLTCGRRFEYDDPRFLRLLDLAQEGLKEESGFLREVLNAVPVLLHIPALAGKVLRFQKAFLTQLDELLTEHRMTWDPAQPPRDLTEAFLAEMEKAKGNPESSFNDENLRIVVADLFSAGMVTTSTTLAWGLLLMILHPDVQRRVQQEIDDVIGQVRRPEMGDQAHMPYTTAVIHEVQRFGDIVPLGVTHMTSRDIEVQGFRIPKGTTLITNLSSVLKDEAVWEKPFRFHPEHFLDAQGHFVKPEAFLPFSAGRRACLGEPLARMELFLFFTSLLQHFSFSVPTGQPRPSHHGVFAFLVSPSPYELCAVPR
Description: as §1
as §2, with “The HPLC profile of the authentic chemicals (i.e., tenatoprazole, tenatoprazole sulfide, and their metabolites) were used to identify the major metabolites of tenatoprazole and tenatoprazole sulfide produced by the recombinant P450s.” left out

Structure (SMILES)	fold higher catalytic efficiency of CYP2C19 than CYP3A4 (human CYP2C19; 5′-OH tenatoprazole formation from tenatoprazole)	kcat of product formation (human CYP2C19; substrate tenatoprazole (1–500 μM), recombinant CYP2C19 0.20 μM, 37 °C, 5 min, label = product formed)	formation rate of metabolite (CYP1A2)	formation rate of metabolite (CYP1B1)	formation rate of metabolite (CYP2C9)	formation rate of metabolite (CYP2D6)
COc1ccc2[nH]c([S+]([O-])Cc3ncc(CO)c(OC)c3C)nc2n1 (centres unmarked) [5′-OH tenatoprazole, 5′-hydroxy tenatoprazole]	63 fold	0.0667 s⁻¹ and 0.0667 ± 0.0033 s⁻¹	< 0.05 nmol product/min/nmol P450	< 0.05 nmol product/min/nmol P450	0.1 min⁻¹	0.1 min⁻¹
COc1ccc2[nH]c(S(=O)(=O)Cc3ncc(C)c(OC)c3C)nc2n1 [tenatoprazole sulfone]	–	–	< 0.05 nmol product/min/nmol P450	< 0.05 nmol product/min/nmol P450	–	–
